# In patent US10508085B2, “Compounds and methods for IDO and TDO modulation, and indications therefor” (Plexxikon Inc., priority 2016, dated 2019):
# Key:
# [1] = molecular target: T1, Human Indoleamine 2,3-dioxygenase (IDO) (Homo sapiens, UniProt P14902); assay: Human IDO enzymatic assay (kynurenine level); type: biochemical; details: 6 nM IDO, 10 μM L-Trp; geometric mean; read-out: IDO1 GMean: IC50 (μM) (Biochemical Assay)
# T1 construct: His tag (N); made in house; host or cells: E. coli
# In short: (§1)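 Reactions were stopped with TCA, converting N-formylkynurenine to kynurenine for quantitation, with IC50 by nonlinear regression. IDO: 6 nM enzyme, 10 μM L-Trp, 20 min RT. TDO: 1 nM enzyme, 350 μM L-Trp, 70 min RT, both in pH 6.5 buffer.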
# [2] = molecular target: T2, Human Tryptophan 2,3-dioxygenase (TDO) (Homo sapiens, UniProt P48775); assay: Human TDO enzymatic assay (kynurenine level); type: biochemical; details: 1 nM TDO, 350 μM L-Trp; geometric mean; read-out: TDO GMean: IC50 (μM) (Biochemical Assay)
# T2 construct: His tag (N); made in house; host or cells: E. coli
# In short: as §1
# [3] = molecular target: T3, human IDO (IDO1-expressing HEK293 cells) (Homo sapiens, UniProt P14902); assay: Cell based kynurenine assay, IDO1-expressing HEK293 cell clones; details: IDO1-expressing HEK293 cells, 24 hours incubation; geometric mean; read-out: HEK293 IDO1 Kynurenine GMean IC50 (μM) (Cellular Assay)
# T3 construct: expressed in transfected cells
# In short: (§2)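 Steps: seed IDO1- or TDO-expressing HEK293 cells at 2.5×10^4 per well; add compound dilutions; incubate 24 h; transfer supernatant and determine kynurenine; derive IC50 via nonlinear regression of percent inhibition.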
# [4] = molecular target: T4, human TDO (TDO-expressing HEK293 cells) (Homo sapiens, UniProt P48775); assay: Cell based kynurenine assay, TDO-expressing HEK293 cell clones; details: TDO-expressing HEK293 cells, 24 hours incubation; geometric mean; read-out: HEK293 TDO Kynurenine GMean IC50 (μM) (Cellular Assay)
# T4 construct: expressed in transfected cells
# In short: as §2
# T1 sequence (P14902 whole entry): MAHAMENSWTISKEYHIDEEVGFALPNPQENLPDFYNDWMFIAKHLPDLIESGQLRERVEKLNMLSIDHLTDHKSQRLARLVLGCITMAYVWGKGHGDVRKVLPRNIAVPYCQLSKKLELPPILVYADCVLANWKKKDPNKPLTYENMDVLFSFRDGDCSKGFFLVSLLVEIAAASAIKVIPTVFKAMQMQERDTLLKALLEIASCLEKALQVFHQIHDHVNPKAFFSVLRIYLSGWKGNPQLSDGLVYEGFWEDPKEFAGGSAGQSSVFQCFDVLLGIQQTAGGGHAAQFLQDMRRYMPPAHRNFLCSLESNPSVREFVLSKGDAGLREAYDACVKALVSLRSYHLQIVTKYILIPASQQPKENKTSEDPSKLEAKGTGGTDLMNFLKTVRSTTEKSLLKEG
# T3 sequence (P14902 whole entry): as above
# T4 sequence (P48775 whole entry): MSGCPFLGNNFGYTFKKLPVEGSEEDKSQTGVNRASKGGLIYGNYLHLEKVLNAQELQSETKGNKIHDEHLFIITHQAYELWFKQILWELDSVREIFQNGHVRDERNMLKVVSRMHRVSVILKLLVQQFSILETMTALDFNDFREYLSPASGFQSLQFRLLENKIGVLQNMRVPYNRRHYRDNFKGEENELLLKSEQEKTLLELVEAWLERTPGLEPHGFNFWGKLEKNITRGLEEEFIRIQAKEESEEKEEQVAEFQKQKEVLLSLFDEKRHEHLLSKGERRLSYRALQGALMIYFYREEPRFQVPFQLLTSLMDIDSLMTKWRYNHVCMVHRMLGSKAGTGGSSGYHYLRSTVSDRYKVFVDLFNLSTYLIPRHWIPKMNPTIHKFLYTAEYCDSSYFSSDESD
# T2 sequence (P48775 whole entry): as above
Compound,IC50 [1],IC50 [2],IC50 [3],IC50 [4]
"O[C@@H](c1c(F)c(Cl)cc2cn[nH]c12)C12CCC(CC1)CC2 [Compound P-0335, (R)-bicyclo[2.2.2]octan-1-yl(5-chloro-6-fluoro-1H-indazol-7-yl)methanol]",0.0001 to 10 µM,0.0001 to 10 µM,0.0001 to 10 µM,> 10 µM
"OC1(c2cc(Cl)cc3[nH]ncc23)CC2(CCC2)C1 [Compound P-0336, 2-(6-chloro-1H-indazol-4-yl)spiro[3.3] heptan-2-ol]",10 to 100 µM,0.0001 to 10 µM,> 10 µM,0.0001 to 10 µM
"CC(C)(C)OC(=O)N1CCC(C(C)(C)[C@H](O)c2cc(Cl)cc3cn[nH]c23)CC1 [Compound P-0337, tert-butyl (S)-4-(1-(5-chloro-1H-indazol-7-yl)-1-hydroxy-2-methylpropan-2-yl)piperidine-1-carboxylate]",0.0001 to 10 µM,0.0001 to 10 µM,0.0001 to 10 µM,0.0001 to 10 µM
"CC(C)(C)OC(=O)N1CCC(C(C)(C)[C@@H](O)c2cc(Cl)cc3cn[nH]c23)CC1 [Compound P-0338, tert-butyl (R)-4-(1-(5-chloro-1H-indazol-7-yl)-1-hydroxy-2-methylpropan-2-yl)piperidine-1-carboxylate]",0.0001 to 10 µM,0.0001 to 10 µM,> 10 µM,0.0001 to 10 µM
"CC(C)(C1CCN(C(=O)Nc2ccc(F)cc2)CC1)[C@@H](O)c1cc(Cl)cc2cn[nH]c12 [Compound P-0339, (R)-4-(1-(5-chloro-1H-indazol-7-yl)-1-hydroxy-2-methylpropan-2-yl)-N-(4-fluorophenyl) piperidine-1-carboxamide]",0.0001 to 10 µM,0.0001 to 10 µM,0.0001 to 10 µM,0.0001 to 10 µM
CC(C)(C(O)c1cc(Cl)cc2cn[nH]c12)[C@H]1C[C@H]2CC[C@@H](C1)N2C(N)=O (stereo partly drawn) [Compound P-0340],0.0001 to 10 µM,0.0001 to 10 µM,0.0001 to 10 µM,0.0001 to 10 µM
"O=C(c1cccnc1)N1CCC(C(F)(F)C(O)c2c(F)c(Cl)cc3cn[nH]c23)CC1 (stereo not drawn) [Compound P-0341, (4-(2-(5-chloro-6-fluoro-1H-indazol-7-yl)-1,1-difluoro-2-hydroxyethyl)piperidin-1-yl)(pyridin-3-yl)methanone]",0.0001 to 10 µM,0.0001 to 10 µM,0.0001 to 10 µM,0.0001 to 10 µM
"COC(=O)N1CCC(C(F)(F)C(O)c2c(F)c(Cl)cc3cn[nH]c23)CC1 (stereo not drawn) [Compound P-0342, methyl 4-(2-(5-chloro-6-fluoro-1H-indazol-7-yl)-1,1-difluoro-2-hydroxyethyl) piperidine-1-carboxylate]",0.0001 to 10 µM,0.0001 to 10 µM,0.0001 to 10 µM,0.0001 to 10 µM
"O=C(C1CC1)N1CCC(C(F)(F)C(O)c2c(F)c(Cl)cc3cn[nH]c23)CC1 (stereo not drawn) [Compound P-0343, (4-(2-(5-chloro-6-fluoro-1H-indazol-7-yl)-1,1-difluoro-2-hydroxyethyl)piperidin-1-yl)(cyclopropyl) methanone]",0.0001 to 10 µM,0.0001 to 10 µM,0.0001 to 10 µM,0.0001 to 10 µM

# The remaining lines, values ahead:
IC50 [1],IC50 [2],IC50 [3],IC50 [4],Compound
0.0001 to 10 µM,0.0001 to 10 µM,0.0001 to 10 µM,0.0001 to 10 µM,"CC(C)OC(=O)N1CCC(C(C)(C)C(O)c2cc(Cl)cc3cn[nH]c23)CC1 (stereo not drawn) [Compound P-0323, isopropyl 4-(1-(5-chloro-1H-indazol-7-yl)-1-hydroxy-2-methylpropan-2-yl)piperidine-1-carboxylate]"
0.0001 to 10 µM,0.0001 to 10 µM,0.0001 to 10 µM,0.0001 to 10 µM,"CC(C)(C1CCN(S(N)(=O)=O)CC1)C(O)c1cc(Cl)cc2cn[nH]c12 (stereo not drawn) [Compound P-0324, 4-(1-(5-chloro-1H-indazol-7-yl)-1-hydroxy-2-methylpropan-2-yl)piperidine-1-sulfonamide]"
0.0001 to 10 µM,0.0001 to 10 µM,0.0001 to 10 µM,0.0001 to 10 µM,"CC(C)(C1CCN(C(N)=O)CC1)C(O)c1cc(Cl)cc2cn[nH]c12 (stereo not drawn) [Compound P-0325, 4-(1-(5-chloro-1H-indazol-7-yl)-1-hydroxy-2-methylpropan-2-yl)piperidine-1-carboxamide]"
0.0001 to 10 µM,0.0001 to 10 µM,0.0001 to 10 µM,0.0001 to 10 µM,"COC(=O)C12CCC(C(O)c3cc(Cl)cc4cn[nH]c34)(CC1)CC2 (stereo not drawn) [Compound P-0326, methyl 4-((5-chloro-1H-indazol-7-yl)(hydroxy)methyl)bicyclo [2.2.2]octane-1-carboxylate]"
0.0001 to 10 µM,0.0001 to 10 µM,0.0001 to 10 µM,0.0001 to 10 µM,"O=C(O)C12CCC(C(O)c3cc(Cl)cc4cn[nH]c34)(CC1)CC2 (stereo not drawn) [Compound P-0327, 4-((5-chloro-1H-indazol-7-yl)(hydroxy)methyl)bicyclo [2.2.2]octane-1-carboxylic acid]"
0.0001 to 10 µM,0.0001 to 10 µM,0.0001 to 10 µM,0.0001 to 10 µM,"OCC12CCC(C(O)c3cc(Cl)cc4cn[nH]c34)(CC1)CC2 (stereo not drawn) [Compound P-0328, (5-chloro-1H-indazol-7-yl)(4-(hydroxymethyl)bicyclo[2.2.2]octan-1-yl)methanol]"
0.0001 to 10 µM,0.0001 to 10 µM,0.0001 to 10 µM,0.0001 to 10 µM,"COC(=O)N1CC2CCC(C1)C2CC(O)c1cc(Cl)cc2cn[nH]c12 (stereo not drawn) [Compound P-0329, methyl 8-(2-(5-chloro-1H-indazol-7-yl)-2-hydroxyethyl)-3-azabicyclo [3.2.1]octane-3-carboxylate]"
0.0001 to 10 µM,0.0001 to 10 µM,0.0001 to 10 µM,0.0001 to 10 µM,"CNS(=O)(=O)N1CCC(C(F)(F)C(O)c2cc(Cl)cc3cn[nH]c23)CC1 (stereo not drawn) [Compound P-0330, 4-(2-(5-chloro-1H-indazol-7-yl)-1,1-difluoro-2-hydroxyethyl)-N-methylpiperidine-1-sulfonamide]"
0.0001 to 10 µM,0.0001 to 10 µM,0.0001 to 10 µM,0.0001 to 10 µM,"CCNS(=O)(=O)N1CCC(C(F)(F)C(O)c2cc(Cl)cc3cn[nH]c23)CC1 (stereo not drawn) [Compound P-0331, 4-(2-(5-chloro-1H-indazol-7-yl)-1,1-difluoro-2-hydroxyethyl)-N-ethylpiperidine-1-sulfonamide]"
0.0001 to 10 µM,0.0001 to 10 µM,0.0001 to 10 µM,0.0001 to 10 µM,"CC(C)NS(=O)(=O)N1CCC(C(F)(F)C(O)c2cc(Cl)cc3cn[nH]c23)CC1 (stereo not drawn) [Compound P-0332, 4-(2-(5-chloro-1H-indazol-7-yl)-1,1-difluoro-2-hydroxyethyl)-N-isopropylpiperidine-1-sulfonamide]"
0.0001 to 10 µM,0.0001 to 10 µM,0.0001 to 10 µM,0.0001 to 10 µM,"O=C(NCC(F)(F)F)N1CCC(C(F)(F)C(O)c2cc(Cl)cc3cn[nH]c23)CC1 (stereo not drawn) [Compound P-0333, 4-(2-(5-chloro-1H-indazol-7-yl)-1,1-difluoro-2-hydroxyethyl)-N-(2,2,2-trifluoroethyl) piperidine-1-carboxamide]"
0.0001 to 10 µM,0.0001 to 10 µM,0.0001 to 10 µM,0.0001 to 10 µM,"O[C@H](c1c(F)c(Cl)cc2cn[nH]c12)C12CCC(CC1)CC2 [Compound P-0334, (S)-bicyclo[2.2.2]octan-1-yl(5-chloro-6-fluoro-1H-indazol-7-yl)methanol]"
